This is an account of results in ChEMBL document CHEMBL5620382, “Fluoroindole chalcone analogues targeting the colchicine binding site of tubulin for colorectal oncotherapy” (Eur J Med Chem, 2023).

Active and inactive are the calls of the source. The rule behind the calls is not given here.

The test system of one assay is HCT-116. The assay can be described thus: Anti-tumor activity against human HCT-116 cells xenografted in BALB/c mouse assessed as inhibition of tumor growth at 7 mg/kg, ip thrice a week for three weeks. In kind it is functional, organism-based. Particulars: time 3.0 weeks. On the technique in general: A xenograft is tissue or cells of one species grown in another, often human tumour cells in immunodeficient mice.
For the molecule `CC(=O)O[C@H]1C(=O)[C@@]2(C)[C@H]([C@H](OC(=O)c3ccccc3)[C@]3(O)C[C@H](OC(=O)[C@H](O)[C@@H](NC(=O)c4ccccc4)c4ccccc4)C(C)=C1C3(C)C)[C@]1(OC(C)=O)CO[C@@H]1C[C@@H]2O` [PACLITAXEL], the result was Active.

The subject of a further assay is HCT-116. Description: Antiproliferative activity against human HCT116 cells assessed as inhibition of proliferation measured after 24 hrs by CCK-8 assay. Conditions: HCT-116, 24 h. In kind it is functional, cell-based. Background: Formazan colour is commonly taken as a measure of viable cells.
Broadly, the IC50 is the concentration needed to halve the response being measured. `COc1ccc(/C=C\c2cc(OC)c(OC)c(OC)c2)cc1O` [COMBRETASTATIN A4]: the IC50 was determined as 15.8 nM. As to `CC(=O)O[C@H]1C(=O)[C@@]2(C)[C@H]([C@H](OC(=O)c3ccccc3)[C@]3(O)C[C@H](OC(=O)[C@H](O)[C@@H](NC(=O)c4ccccc4)c4ccccc4)C(C)=C1C3(C)C)[C@]1(OC(C)=O)CO[C@@H]1C[C@@H]2O` [PACLITAXEL], the IC50 was determined as 24 nM.

A further assay has as its system HCT-116. Description: Cytotoxicity against human HCT-116 cells assessed as growth inhibition measured after 48 hrs by CCK-8 assay. It is filed as functional.
Settings: not given
As a reminder, the GI50 is the concentration that inhibits growth by half. `COc1ccc2c(/C=C(\C)C(=O)c3cc(OC)c(OC)c(OC)c3)c[nH]c2c1`: the 50% growth inhibitory concentration (GI50) is 74 nM.

For `COc1cc(C(=O)/C(C)=C/c2c[nH]c3cccc(C)c23)cc(OC)c1OC`, the GI50 turned out to be 602 nM. Same read-out and setting: the value for `COc1cc(C(=O)/C(C)=C/c2c[nH]c3ccccc23)cc(OC)c1OC` was 0.99 nM; that for `COc1cc(C(=O)/C(C)=C/c2c[nH]c3cc(N)ccc23)cc(OC)c1OC` was 69 nM; that for `COc1cc(C(=O)/C(C)=C/c2c[nH]c3ccncc23)cc(OC)c1OC` was 1080 nM. For `O=C(/C=C/c1c[nH]c2ccccc12)c1ccccc1`, the 50% growth inhibitory concentration (GI50) is more than 10000 nM.

Consider `COc1cc(C(=O)/C(C)=C/c2c[nH]c3ccc(F)cc23)cc(OC)c1OC`, for which the GI50 turned out to be 29 nM. Take `COc1cc(C(=O)/C(C)=C/c2c[nH]c3c(C)cccc23)cc(OC)c1OC`: the GI50 turned out to be 107 nM. The same measure, in the same setting: the value for `COc1cccc(C(=O)/C(C)=C/c2c[nH]c3ccccc23)c1` was 348 nM; that for `COc1cc(C(=O)/C(C)=C/c2c[nH]c3c([N+](=O)[O-])cccc23)cc(OC)c1OC` was 91 nM.

Consider `COc1cc(C(=O)/C(C)=C/c2cnc3ccccn23)cc(OC)c1OC`, for which the GI50 came to 71 nM. `COc1cc(C(=O)/C(C)=C/c2c[nH]c3ccc(Br)cc23)cc(OC)c1OC`: the GI50 is more than 8000 nM. Same read-out and setting: in the case of `COc1cc(C(=O)/C(C)=C/c2cnn3ccccc23)cc(OC)c1OC` it was 79 nM. On the same count and under the same terms, the value for `COc1cc(C(=O)/C(C)=C/c2c[nH]c3cc(C)ccc23)cc(OC)c1OC` was 46 nM; that for `COc1cc(C(=O)/C(C)=C/c2c[nH]c3ccc(C)cc23)cc(OC)c1OC` was 71 nM. On to `COc1cc(C(=O)/C(C)=C/c2c[nH]c3ccc([N+](=O)[O-])cc23)cc(OC)c1OC`, for which the GI50 was found to be 74 nM. Same read-out and setting: in the case of `COc1cc(C(=O)/C(C)=C/c2csc3ccccc23)cc(OC)c1OC` it was 200 nM; in that of `COc1ccc(C(=O)/C(C)=C/c2c[nH]c3ccccc23)cc1OC`, 74 nM. Still for that read-out and setting: the value for `COc1cc(C(=O)/C(C)=C/c2c[nH]c3cccnc23)cc(OC)c1OC` was 59 nM; that for `COc1cc(C(=O)/C(C)=C/c2c[nH]c3ccc(Cl)cc23)cc(OC)c1OC` was 70 nM. Still for that read-out and setting: in the case of `COc1cc(C(=O)/C(C)=C/c2c[nH]c3ccccc23)cc2c1OCO2` it was 61 nM; in that of `COc1cc(C(=O)/C(C)=C/c2c[nH]c3cnccc23)cc(OC)c1OC`, 821 nM. In the case of `CC/C(=C\c1c[nH]c2ccccc12)C(=O)c1cc(OC)c(OC)c(OC)c1`, the GI50 was 43 nM.

On to `C/C(=C\c1c[nH]c2ccccc12)C(=O)c1ccccc1`, for which the GI50 is more than 15000 nM. Consider `COc1cc(OC)cc(C(=O)/C(C)=C/c2c[nH]c3ccccc23)c1`, for which the GI50 stood at 65 nM. On the same count and under the same terms, the value for `COc1cc(C(=O)/C(C)=C/c2c[nH]c3ncccc23)cc(OC)c1OC` was 49 nM; that for `COc1cc(C(=O)/C(C)=C/c2c[nH]c3cc(C(=O)O)ccc23)cc(OC)c1OC` was more than 10000 nM. The same measure, in the same setting: in the case of `COc1cncc(C(=O)/C(C)=C/c2c[nH]c3ccccc23)c1` it was 240 nM. On to `COc1cccc2c1CC/C(=C\c1c[nH]c3ccccc13)C2=O`, for which the GI50 is more than 10000 nM.

For the molecule `COC(=O)c1ccc2c(/C=C(\C)C(=O)c3cc(OC)c(OC)c(OC)c3)c[nH]c2c1`, the concentration for 50% growth inhibition (GI50) worked out at 536 nM.

As for `COc1cc(C(=O)/C(C)=C/c2c[nH]c3cc([N+](=O)[O-])ccc23)cc(OC)c1OC`, the GI50 was 76 nM.
